Target: E3 ubiquitin-protein ligase CBL-B (Homo sapiens, UniProt Q13191)
Experiment: Inhibition of Cbl-b (unknown origin) assessed as inhibition of Cbl-b dependent auto-ubiquitination in presence of ATP measured after 13 hrs by fluorescence microplate reader assay

E3 ubiquitin-protein ligase CBL-B, sequence (Q13191 whole entry): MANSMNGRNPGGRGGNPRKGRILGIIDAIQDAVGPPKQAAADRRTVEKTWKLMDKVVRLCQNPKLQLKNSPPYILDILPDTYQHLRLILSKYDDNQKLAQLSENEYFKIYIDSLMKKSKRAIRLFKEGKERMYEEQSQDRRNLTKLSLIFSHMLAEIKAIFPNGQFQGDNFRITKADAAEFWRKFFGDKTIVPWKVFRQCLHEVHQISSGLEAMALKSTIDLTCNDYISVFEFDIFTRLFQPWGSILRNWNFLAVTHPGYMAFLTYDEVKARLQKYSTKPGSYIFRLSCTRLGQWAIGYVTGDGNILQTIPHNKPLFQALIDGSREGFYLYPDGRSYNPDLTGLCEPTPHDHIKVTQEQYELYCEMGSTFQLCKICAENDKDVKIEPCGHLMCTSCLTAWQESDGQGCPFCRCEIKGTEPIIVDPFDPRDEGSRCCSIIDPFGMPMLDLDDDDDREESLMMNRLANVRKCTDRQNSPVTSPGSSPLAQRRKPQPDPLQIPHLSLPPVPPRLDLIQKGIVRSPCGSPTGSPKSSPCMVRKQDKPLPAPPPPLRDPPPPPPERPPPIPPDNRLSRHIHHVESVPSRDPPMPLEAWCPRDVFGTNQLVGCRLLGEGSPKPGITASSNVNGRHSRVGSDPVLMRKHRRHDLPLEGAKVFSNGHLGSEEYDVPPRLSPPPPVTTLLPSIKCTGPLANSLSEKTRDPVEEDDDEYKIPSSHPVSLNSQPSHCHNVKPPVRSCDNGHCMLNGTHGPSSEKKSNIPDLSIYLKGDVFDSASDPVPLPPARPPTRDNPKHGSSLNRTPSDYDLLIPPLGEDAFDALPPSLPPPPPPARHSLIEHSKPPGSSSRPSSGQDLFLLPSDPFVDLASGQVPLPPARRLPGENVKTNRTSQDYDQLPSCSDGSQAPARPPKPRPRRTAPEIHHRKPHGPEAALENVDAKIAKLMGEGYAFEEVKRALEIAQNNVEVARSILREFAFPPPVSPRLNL

IC50: 6.5 µM
SMILES: CC(C)=CCC/C(C)=C/CC/C(C)=C/CC/C(C)=C/C(=O)NCCC[N+](C)(C)CCCC[N+](C)(C)CCCNC(=O)/C=C(\C)CC/C=C(\C)CC/C=C(\C)CCC=C(C)C
